Laboratory results as given in paper PMC6409085, “Three odorant-binding proteins are involved in the behavioral response of Sogatella furcifera to rice plant volatiles” (PeerJ, 2019).
Read-outs that look alike come from different tables or passages of the source.

Experiments:
[1] = test system: dsRNA treated S. furcifera adults; test: Y-tube olfactometer behavioral trials after RNAi; format: in vivo, Sogatella furcifera; settings: for number of insects choosing hexane arm / number of insects choosing volatile arm / number of insects failed (no choice): odorant vs hexane
Description: To test the effect of the rice odorants on the behavior of S. furcifera adults, a glass Y-tube olfactometer (inner diameter 2.0 cm, stem 13 cm, arms 10 cm, angle of arms 60°) according to the previously described ([Wang et al., 2014b]) was employed. An airtight cubic box (70 by 45 by 30 cm) was used to position Y-tube, and the Y-tube was lighted by a 30-W filament lamp 25 cm above it. Air that filtered through activated charcoal and humidified with doubly distilled water was pumped in both arms at a flow rate of 300 mL/min. Two filter paper strips (10 by 1 cm) containing 100 µL odorant source (50 µL/L) and 100 µL control hexane were placed in two holding chambers in the front of the olfactometer, respectively. A S. furcifera adult (2 days after emergence, starved for 0.5 h) was randomly chosen and placed in the stem of the Y-tube. Each insect was given 10 min to choose between the two arms of the Y-tube, the choice was noted if the planthopper reached one-half of the arms’ lengths and stayed in the arm for more than 1 min. Besides, S. furcifera was considered as having no orientation preference. Forty-five individuals were used for each compound, each insect used only once. And the dual-choice experiment was done in an environmentally controlled room (25 ± 1 °C and 50% RH). A Chi-squared test was used to analyze the behavioral assay data by using SPSS19.0 (SPSS Inc., Chicago, IL, USA) software.
S. furcifera adults (one-day-old, CO2 anesthetized) were injected with dsRNA (50 nL/adult, 2,000 ng/µL) through the membrane between the meso- and meta-thoracic legs using a Nanoinjector (Drummond Scientific, Broomall, PA, USA). Five treatments including dsOBP2, dsOBP3, dsOBP11, dsEGFP and RNase-free water (Control) were set up. Each treatment consisted of 30 adults and the experiments were repeated three times. Ten individuals were collected from each replicate to determine the effects of RNAi by qPCR post 24 h of dsRNA injection (the timepoint with maximum RNAi efficiency after injection). Meanwhile, the behavioral responses of dsRNA treated adults for volatiles which binding well to OBP and attract or repel to S. furcifera were tested using a Y-tube olfactometer as described above.

S. furcifera adults = test system: S. furcifera adults; set-up: method as in Wang et al., 2017; settings: previously reported, ref Wang et al., 2017, cited from earlier work

SMILES: C=C/C(C)=C/C/C=C(\C)CCC=C(C)C [α-farnesene]
- behavioral response (in words) ([1]; dsOBP3 injected adults): no longer attracted
- number of insects choosing hexane arm ([1]; dsOBP3 injected adults): 11
- number of insects choosing volatile arm ([1]; dsOBP3 injected adults): 12
- number of insects failed (no choice) ([1]; dsOBP3 injected adults): 15

SMILES: CC(=O)/C=C/C1=C(C)CCCC1(C)C [β-Ionone]
- behavioral response (in words) ([1]; SfurOBP2 silenced adults): significantly reduced the number of adults that attracted
- number of insects choosing hexane arm ([1]; dsOBP2 injected adults): 14
- number of insects choosing volatile arm ([1]; dsOBP2 injected adults): 13
- number of insects failed (no choice) ([1]; dsOBP2 injected adults): 15
- number of insects choosing hexane arm ([1]; dsOBP3 injected adults): 9
- number of insects choosing volatile arm ([1]; dsOBP3 injected adults): 16
- number of insects failed (no choice) ([1]; dsOBP3 injected adults): 15
- number of insects choosing hexane arm ([1]; dsOBP11 injected adults): 8
- number of insects choosing volatile arm ([1]; dsOBP11 injected adults): 17
- number of insects failed (no choice) ([1]; dsOBP11 injected adults): 16

SMILES: C/C(=C\CO)CCC[C@H](C)CCC[C@H](C)CCCC(C)C [plant alcohol]
- behavioral response (in words) ([1]; dsOBP11 injected adults): lost the activation that repel
- number of insects choosing hexane arm ([1]; dsOBP11 injected adults): 17
- number of insects choosing volatile arm ([1]; dsOBP11 injected adults): 19
- number of insects failed (no choice) ([1]; dsOBP11 injected adults): 13
- behavioral response of S. furcifera (in words) (S. furcifera adults): significantly repellent effect
- behavioral response of S. furcifera (in words) (S. furcifera adults; listed as Plant alcohol): strongly repellent
